Reference: PubChem BioAssay AID248 (DTP/NCI, 2004)
Toxic doses and inconclusive results are not listed. Rule as the data show it: active = T/C of 150% or more; inactive = T/C below 125%.

Tested on: L1210 leukemia ip in BDF1 mice, survival T/C
Assay: NCI In Vivo Anticancer Drug Screen. Data for tumor model L1210 Leukemia (intraperitoneal) in B6D2F1 (BDF1) mice
Conditions: endpoint: mean survival time, higher = longer survival
How it was run: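 Tumor cells were implanted, animals were treated, and survival was followed. The result divides the treated measurement by the vehicle-control measurement.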

[1] = dose: 100.0 mg/kg/injection, schedule: Q01DX009 (ip), vehicle: Klucel (hydroxypropylcellulose) (HPC)
[2] = dose: 200.0 mg/kg/injection, schedule: Q01DX009 (ip), vehicle: Klucel (hydroxypropylcellulose) (HPC)
[3] = dose: 400.0 mg/kg/injection, schedule: Q01DX009 (ip), vehicle: Klucel (hydroxypropylcellulose) (HPC)
[4] = dose: 100.0 mg/kg/injection, schedule: Q04DX003 (ip), vehicle: saline with Tween-80
[5] = dose: 200.0 mg/kg/injection, schedule: Q04DX003 (ip), vehicle: saline with Tween-80
[6] = dose: 400.0 mg/kg/injection, schedule: Q04DX003 (ip), vehicle: saline with Tween-80
[7] = dose: 50.0 mg/kg/injection, schedule: Q01DX001 (ip), vehicle: carboxymethylcellulose (CMC)
[8] = dose: 100.0 mg/kg/injection, schedule: Q01DX001 (ip), vehicle: carboxymethylcellulose (CMC)
[9] = dose: 200.0 mg/kg/injection, schedule: Q01DX001 (ip), vehicle: carboxymethylcellulose (CMC)
[10] = dose: 100.0 mg/kg/injection, schedule: Q04DX002 (ip), vehicle: Klucel (hydroxypropylcellulose) (HPC)
[11] = dose: 200.0 mg/kg/injection, schedule: Q04DX002 (ip), vehicle: Klucel (hydroxypropylcellulose) (HPC)
[12] = dose: 400.0 mg/kg/injection, schedule: Q04DX002 (ip), vehicle: Klucel (hydroxypropylcellulose) (HPC)
[13] = dose: 100.0 mg/kg/injection, schedule: Q01DX001 (ip), vehicle: saline
[14] = dose: 200.0 mg/kg/injection, schedule: Q01DX001 (ip), vehicle: saline
[15] = dose: 400.0 mg/kg/injection, schedule: Q01DX001 (ip), vehicle: saline
[16] = dose: 200.0 mg/kg/injection, schedule: Q01DX009 (ip), vehicle: saline with Tween-80
[17] = dose: 400.0 mg/kg/injection, schedule: Q01DX001 (ip), vehicle: carboxymethylcellulose (CMC)

Measured: T/C

NNC(=O)c1ccc(Cl)cc1Nc1ccccc1
inactive: dose: 100.0 mg/kg/injection, schedule: Q01DX001 (ip), vehicle: Klucel (hydroxypropylcellulose) (HPC) 95 % of control | [1] 107 % of control | dose: 200.0 mg/kg/injection, schedule: Q01DX001 (ip), vehicle: Klucel (hydroxypropylcellulose) (HPC) 86 % of control | [2] 94 % of control | dose: 400.0 mg/kg/injection, schedule: Q01DX001 (ip), vehicle: Klucel (hydroxypropylcellulose) (HPC) 97 % of control

c1ccc(C2CC(c3ccccc3)S2)cc1 (stereo not given)
inactive: dose: 100.0 mg/kg/injection, schedule: Q04DX003 (ip), vehicle: Klucel (hydroxypropylcellulose) (HPC) 100 % of control | dose: 200.0 mg/kg/injection, schedule: Q04DX003 (ip), vehicle: Klucel (hydroxypropylcellulose) (HPC) 105 % of control | dose: 400.0 mg/kg/injection, schedule: Q04DX003 (ip), vehicle: Klucel (hydroxypropylcellulose) (HPC) 105 % of control

O=C(Nc1ccc(Nc2ccccc2)cc1)Nc1ccccc1F
inactive: [1] 97 % of control | [2] 95 % of control | [3] 97 % of control

CCC(CO)NC(=O)/C=C/c1ccccc1 (stereo not given)
inactive: dose: 100.0 mg/kg/injection, schedule: Q01DX001 (ip), vehicle: saline with Tween-80 101 % of control | [4] 97 % of control | dose: 200.0 mg/kg/injection, schedule: Q01DX001 (ip), vehicle: saline with Tween-80 94 % of control | [5] 97 % of control | dose: 400.0 mg/kg/injection, schedule: Q01DX001 (ip), vehicle: saline with Tween-80 100 % of control | [6] 91 % of control

CCOC(=O)/C(C)=C\C1C(C)=CCCC1(C)C (stereo not given)
inactive: [1] 104 % of control | [2] 102 % of control | [3] 96 % of control

CCCc1cc(=O)c2ccccc2n1COC(C)=O
inactive: [7] 119 % of control | [8] 113 % of control | [9] 113 % of control

COc1c2c(c3c(c1OC)c(=O)c1ccccc1n3C)OCO2
inactive: [7] 96 % of control | [8] 93 % of control | [9] 107 % of control | dose: 300.0 mg/kg/injection, schedule: Q01DX001 (ip), vehicle: carboxymethylcellulose (CMC) 102 % of control

Nc1nc(N)nc(C(c2ccccc2)c2ccccc2)n1
inactive: [10] 103 % of control | [11] 94 % of control | [12] 87 % of control

Cn1nc(C#N)c2c(N)ncnc21
inactive: [13] 104 % of control | [14] 104 % of control | [15] 101 % of control

CC1=NN(c2ccccc2)C(=O)C1N=Nc1ccccc1S(=O)(=O)O (stereo not given)
inactive: [13] 96 % of control | [14] 94 % of control | [15] 102 % of control

N\C([S-])=N/N=C\C(=N/N=C(\N)[S-])C(O)C(O)C(O)CO.[Ni+2] (stereo not given)
inactive: [4] 96 % of control | [5] 94 % of control | [6] 91 % of control

[NH-]c1ccccc1C(=O)O.[NH-]c1ccccc1C(=O)O.[Ni+2]
inactive: dose: 50.0 mg/kg/injection, schedule: Q01DX009 (ip), vehicle: saline with Tween-80 100 % of control | [16] 105 % of control

CC1CN1C1=C(Cl)C(=O)C(N2CC2C)=C(Cl)C1=O (stereo not given)
inactive: dose: 0.78 mg/kg/injection, schedule: Q01DX009 (ip), vehicle: Klucel (hydroxypropylcellulose) (HPC) 104 % of control | dose: 1.56 mg/kg/injection, schedule: Q01DX009 (ip), vehicle: Klucel (hydroxypropylcellulose) (HPC) 105 % of control | dose: 3.12 mg/kg/injection, schedule: Q01DX009 (ip), vehicle: Klucel (hydroxypropylcellulose) (HPC) 102 % of control | dose: 6.25 mg/kg/injection, schedule: Q01DX009 (ip), vehicle: Klucel (hydroxypropylcellulose) (HPC) 96 % of control | dose: 12.5 mg/kg/injection, schedule: Q01DX009 (ip), vehicle: Klucel (hydroxypropylcellulose) (HPC) 107 % of control

Cc1ccc(S(=O)(=O)N(C)CCCCC(=O)O)cc1
inactive: dose: 100.0 mg/kg/injection, schedule: Q01DX009 (ip), vehicle: saline with Tween-80 90 % of control | [16] 104 % of control | dose: 400.0 mg/kg/injection, schedule: Q01DX009 (ip), vehicle: saline with Tween-80 93 % of control

CCOP(=O)(NC(C)(C)C)OCC
inactive: [7] 107 % of control | [8] 107 % of control | [9] 105 % of control | [17] 100 % of control

O=S1(=O)C2CCCCCC2(N2CCOCC2)C1c1ccccc1 (stereo not given)
inactive: [10] 101 % of control | [11] 97 % of control | [12] 93 % of control

N#Cc1cnn(CCO)c1N
inactive: [8] 103 % of control | dose: 100.0 mg/kg/injection, schedule: Q01DX009 (ip), vehicle: water 107 % of control | dose: 100.0 mg/kg/injection, schedule: Q04DX003 (ip), vehicle: water 115 % of control | [9] 97 % of control | dose: 200.0 mg/kg/injection, schedule: Q01DX009 (ip), vehicle: water 101 % of control | dose: 200.0 mg/kg/injection, schedule: Q04DX003 (ip), vehicle: water 110 % of control | [17] 100 % of control | dose: 400.0 mg/kg/injection, schedule: Q01DX009 (ip), vehicle: water 114 % of control | dose: 400.0 mg/kg/injection, schedule: Q04DX003 (ip), vehicle: water 104 % of control
